This note sets out measurements from patent EP2022493A1, “Composition comprising at least one optically active phthalamide derivative for controlling animal parasites” (Bayer CropScience AG, priority 2007, dated 2009).

In general, chromatographic logP refers to a lipophilicity value derived from retention on a column. Broadly, the mortality is the share of the test organisms that died.

The nature of data set [1]: Determination of the logP values by HPLC on reversed-phase column (C 18). The data set is classed as physicochemical. The protocol: Determination of the logP values:
The lambda max values were determined in the maxima of the chromatographic signals using the UV spectra from 190 nm to 400 nm.

The subject of data set [2] is Boophilus microplus. In words: Boophilus microplus - test (injection into adult ticks). It is filed as in vivo. The conditions noted are these: application rate of 20 µg/animal; injected into the abdomen of adult ticks; seven days. The method, then:
Boophilus microplus - test Solvent: dimethylsulfoxide To produce a suitable preparation of active compound, 1 part by weight of active compound is mixed with the stated amount of solvent, and the concentrate is diluted with containing solvent to the desired concentration. Adult ticks (Boophilus microplus) are treated by injected with compound solution of the desired concentration into the abdomen. Ticks are transferred into replica plates and incubated in a climate chamber for seven days. Eggs which are not clearly fertile or infertile are further incubated for another 35 days until larvae hatch from the untreated controls. After the specified period of time, the laying of fertile eggs in % is determined. 100 % means that all eggs have been fertile; 0 % means that none of the eggs have been fertile.

Data set [3] relates to Musca domestica. Description: Musca domestica - test. The conditions noted are these: adults; for mortality at 100 ppm: application rate of 100ppm; for mortality at 20 ppm: application rate of 20ppm. It is filed as in vivo. The method, then:
(§1) Solvent: dimethyl sulfoxide
(§2) To produce a suitable preparation of active compound, 10 mg of active compound are dissolved in 0.5 ml solvent, and the concentrate is diluted with water to the desired concentration.
Prior to the assay, a piece or kitchen sponge is soaked with a mixture of sugar and compound solution and placed into a container. 10 adults (Musca domestica) are placed into the container and closed with a perforated lid.
After the specified period of time, mortality in % is determined. 100 % means that all the flies have been killed; 0 % means that none of the flies have been killed.

The test system of data set [4] is Lucilia cuprina larvae. In words: Lucilia cuprina - test (larvae). It is filed as in vivo. The conditions noted are these: in Ovis aries, read-out: activity (mortality in %). The protocol:
as §1, §2
Approximately 20 -30 (Lucilia cuprina larvae) are transferred into a test tube containing 1cm^3 of minced horse meat and 0.5 ml aqueous dilution of test compound.
After the specified period of time, mortality in % is determined. 100 % means that all the larvae have been killed; 0 % means that none of the larvae have been killed.

Where [5] appears, read: 0.1% aqueous phosphoric acid/acetonitrile, HPLC, reversed-phase C 18, 40 °C, [a] 0.1% aqueous phosphoric acid and acetonitrile at pH 2.3, linear gradient from 10 to 95 % (v/v) acetonitrile.
[6] abbreviates: 0.001 m aqueous nh4hco3/acetonitrile, method [c]: 0.001 molar aqueous NH4HCO3 solution and acetonitrile at pH 7.8, linear gradient from 10 % to 95 % acetonitrile (v/v), HPLC reversed-phase C 18, 40 °C.
Setting [7] is: 0.1% aqueous phosphoric acid/acetonitrile, method [a]: 0.1% aqueous phosphoric acid and acetonitrile at pH 2.3, linear gradient from 10 to 95 % (v/v) acetonitrile, HPLC reversed-phase C 18, 40 °C.

Turning to `CCS(=O)(=O)C[C@H](C)NC(=O)c1c(I)cccc1C(=O)Nc1ccc(C(C(F)F)C(F)(F)F)cc1F` (stereo partly drawn) [Compound 315], the chromatographic logP in data set [1] (0.001 m aqueous nh4hco3/acetonitrile, HPLC, reversed-phase C 18, 40 °C, [c] 0.001 molar aqueous NH4HCO3 solution and acetonitrile at pH 7.8, linear gradient from 10 % to 95 % acetonitrile (v/v)) was determined as 2.69; in data set [1] (setting [5]) it was 2.65. Moreover, the “activity (laying of fertile eggs in %)” value in data set [2] is recorded as at least 80%. In addition, the mortality at 100 ppm in data set [3] and in data set [4] was at least 80% each time.

In data set [1] (setting [5]), `Cc1c(NC(=O)c2cccc(I)c2C(=O)N[C@@H](C)C[S+](C)[O-])ccc(C(F)(F)C(F)(F)F)c1F` (stereo partly drawn) [Compound 323] had a chromatographic logP of 2.5. Further, the “activity (laying of fertile eggs in %)” value in data set [2] is recorded as at least 80%. In addition, the mortality at 100 ppm in data set [3] and in data set [4] was at least 80% each time.

In data set [1] (setting [5]), `Cc1c(NC(=O)c2cccc(Cl)c2C(=O)N[C@@H](C)CS(C)(=O)=O)ccc(C(F)(F)C(F)(F)F)c1F` [Compound 363] yielded a chromatographic logP of 2.82. For the same compound, in data set [2], the “activity (laying of fertile eggs in %)” value is at least 80%. Besides, the mortality at 100 ppm in data set [3] and in data set [4] was at least 80% throughout.

With `Cc1cc(C(F)(C(F)F)C(F)(F)F)ccc1NC(=O)c1cccc(Cl)c1C(=O)N[C@@H](C)CS(C)(=O)=O` (stereo partly drawn) [Compound 371], the chromatographic logP in data set [1] (setting [6]) is 2.64; in data set [1] (setting [7]) it was 2.61. For the same compound, the “activity (laying of fertile eggs in %)” value in data set [2] is at least 80%. Besides, the mortality at 100 ppm in data set [3] and in data set [4] was at least 80% in each case.

In turn, `CCS(=O)(=O)C[C@H](C)NC(=O)c1c(Cl)cccc1C(=O)Nc1ccc(C(F)(F)C(F)(F)F)c(F)c1C` [Compound 372] showed a chromatographic logP in data set [1] (setting [7]) of 3.01. Further, in data set [2], the “activity (laying of fertile eggs in %)” value is at least 80%. The compound also registered a mortality at 20 ppm in data set [3] of at least 80%. For the same compound, the mortality at 100 ppm in data set [4] was at least 80%.

In turn, `CSC[C@H](C)NC(=O)c1c(Br)cccc1C(=O)Nc1ccc(C(F)(C(F)(F)F)C(F)(F)F)c(F)c1C` [Compound 398] showed a chromatographic logP in data set [1] (setting [7]) of 4.31. For the same compound, in data set [2], the “activity (laying of fertile eggs in %)” value is at least 80%. For the same compound, the mortality at 100 ppm in data set [3] and in data set [4] was at least 80% in each case.

For the compound `Cc1c(NC(=O)c2cccc(Cl)c2C(=O)N[C@@H](C)C[S+](C)[O-])ccc(C(C(F)(F)F)C(F)(F)F)c1F` (stereo partly drawn) [Compound 406], the chromatographic logP in data set [1] (setting [6]) came out at 2.41; in data set [1] (setting [7]) it was 2.5. Moreover, the “activity (laying of fertile eggs in %)” value in data set [2] is at least 80%. Moreover, the mortality at 100 ppm in data set [3] and in data set [4] was at least 80% each time.

As to `Cc1cc(C(C(F)(F)F)C(F)(F)F)c(F)cc1NC(=O)c1cccc(Cl)c1C(=O)N[C@@H](C)C[S+](C)[O-]` (stereo partly drawn) [Compound 414], the chromatographic logP in data set [1] (setting [6]) was determined as 2.51; in data set [1] (setting [7]), 2.58. Moreover, in data set [2], the “activity (laying of fertile eggs in %)” value is reported as at least 80%. In addition, the mortality at 100 ppm in data set [3] and in data set [4] was at least 80% in each case.

In data set [1] (setting [7]), `CSC[C@H](C)NC(=O)c1c(I)cccc1C(=O)Nc1ccc(C(F)(C(F)(F)F)C(F)(F)F)c(F)c1C` [Compound 423] yielded a chromatographic logP of 4.41. For the same compound, in data set [2], the “activity (laying of fertile eggs in %)” value is reported as at least 80%. Further, the mortality at 100 ppm in data set [3] and in data set [4] was at least 80% each time.

The compound `CCS(=O)(=O)C[C@H](C)NC(=O)c1c(Br)cccc1C(=O)Nc1ccc(C(C)(F)C(F)F)cc1Br` (stereo partly drawn) [Compound 424] displayed a chromatographic logP in data set [1] (setting [7]) of 3.06. Moreover, the “activity (laying of fertile eggs in %)” value in data set [2] is at least 80%. In data set [3], this compound came in with a mortality at 20 ppm of at least 80% and a mortality at 100 ppm of at least 80%. For the same compound, the mortality at 100 ppm in data set [4] is at least 80%.
